The values below are quoted from earlier work in patent publication US20040224037A1, “Devastating treatment against hiv/aids with capsaicin” (priority 2003, published 2004).

Ends that are not written are not given here.

The test system of data set [1] is guinea pig peritoneal macrophages.

With “arg-pro-lys-pro-gln-gln-phe-phe-gly-leu-met-nh2 (RPKPQQFFGLM-NH2; UniProt P20366 58-68, looked up) [Substance p (sp), undecapeptide neuropeptide]”, the phagocytosis result with macrophages of mice and in the data set with human leucocytes was “stimulates phagocytosis” each time. Besides, the “macrophage activation, liberation of reactive oxygen species” value in data set [1] is reported as “activated such macrophages”.
